Measurements: the NIST ThermoML archive (doi:10.1016/j.tca.2015.05.015)
Numbers after ± are expanded uncertainties.

Columns and labels:
[1] = Molar enthalpy of transition or fusion; conditions: Crystal; DSC
[2] = Crystal; DTA

Molar enthalpy of transition or fusion [1]	Normal melting temperature [2]	Compound
12 ± 0.55 kcal/mol	17 ± 5 °C	CCCCCCCCCCCCCCCC [hexadecane]
14.2 ± 0.598 kcal/mol	25 ± 5 °C	CCCCCCCCCCCCCCCCCC [octadecane]
